Columns and labels:
[1] = Liposomal CTC and MTC PK in mice, plasma STC by HPLC; format: in vivo; conditions: mouse, single dose, slow intravenous bolus
Method: Sample mixtures were well mixed by vortexing. […] Samples were vortexed and then centrifuged at 10000 RPM for 10 min at room temperature. 200 μL of supernatant was removed from each sample without disturbing pellet and analyzed by HPLC. If the amount of plasma permitted, this analysis was duplicated.
The concentration of STC in the plasma samples was quantified by standard curve constructed by analyzing plasma samples containing known amount of STC. PK profiles were analyzed.

[2] = Maximum solubility of trans-crocetin sodium in aqueous media; format: physicochemical; conditions: 5% dextrose (aqueous medium), saline or isotonic; in 5% dextrose
Method: The ethanolic lipid solution containing HSPC, cholesterol, PEG-DSPE, with/without PGPC was added into the aqueous solution using a pipet. During this step the solution was well stirred using a magnetic stirrer. The mixing was performed at an elevated temperature (63° C.-72° C.) to ensure that the lipids are in the liquid crystalline state (as opposed to the gel state they attain at temperatures below the lipid transition temperature (Tm=51° C.-54° C.). As a result, the lipids are hydrated and formed multiple bilayer (multilamellar) vesicles (MLV) containing trans-crocetin sodium in the aqueous core. The MLVs were then downsized by extrusion as described previously.
The ethanolic lipid solution containing HSPC, cholesterol, PEG-DSPE, with/without PGPC and the trans-crocetin sodium aqueous solution were separately transferred to syringes. Two solutions were injected into a microfluidic channel and mixed while flowing through it with Precision NanoSystems' NanoAssemblr® device. The mixing was performed at an elevated temperature (63° C.-72° C.) to ensure that the lipids were in a liquid crystalline state (as opposed to the gel state that they attain at temperatures below the lipid transition temperature (Tm=51° C.-54° C.). The liposome size can be controlled by varying the ratio between lipid solution and aqueous solution, as well as the mixing flow rate.

mouse CLP sepsis model = assay: CLP sepsis survival Study 1 (TP-936); format: in vivo, C57BL/6 mice; conditions: CLP mice treated with saline and imipenem (control group); over 5 days
Description: Male and/or female C57BL/6 mice ordered from Envigo Laboratories or the Jackson Lab (Bar Harbor, Maine) were acclimated to housing conditions and handled in accordance with Animal Use Protocol (AUP) number TP-05. The animals were acclimated for approximately 1 week prior to study start. Only animals deemed healthy were included in this study. Animals were fed irradiated Teklad Global Rodent Diet 2918 and water ad libitum. Mice were group housed 5/cage in static cages with irradiated Teklad ⅛″ corn cob bedding 7902 inside bioBubble® Clean Rooms that provide H.E.P. A filtered air into the bubble environment at 100 complete air changes per hour. The environment was controlled to a temperature range of 74°±5° F. and a humidity range of 30-70%. Treatment groups were identified by cage card. Individual mice were identified by indelible marker on the base of the tail. All procedures carried out in this experiment were conducted in compliance with the laws, regulations, and guidelines of the National Institutes of Health and with the approval of the TransPharm Animal Care and Use Committee.
On Day −1, male and/or female mice were anesthetized through use of isoflurane and brought to a surgical plane. […]
Animals were monitored continually post-surgery, at least once every 2-3 minutes for approximately 30 minutes, until the animals had recovered and were able to move about on their own. […]

[3] = Balb/c, iv, plasma over 24 hour

| Compound | AUC [1, 3] [µg·h/mL] | half-life [1, 3] [min] | Cmax ([1]; Balb/c mice) [µg/mL] | solubility [2] [µg/mL] | mortality (mouse CLP sepsis model) [%] |
| --- | --- | --- | --- | --- | --- |
| CC(/C=C/C=C(\C)C(=O)O)=C\C=C\C=C(C)\C=C\C=C(/C)C(=O)O [STC free drug, sodium trans-crocetinate] | 210 | 21 | 360 | 700 | – |
| C[C@@H](O)[C@H]1C(=O)N2C(C(=O)O)=C(SCCN=CN)C[C@H]12 [imipenem] | – | – | – | – | 50 |

Reference: patent US12458597B2, “Carotenoid compositions and uses thereof” (L.E.A.F. HOLDINGS GROUP LLC, priority 2018, dated 2025)
